# Measurements: patent US8802595B2, “Use of prolines for improving growth and/or yield” (Los Alamos National Security, LLC, priority 2005, dated 2014)
# Tests used:
# Format in all cases: in vivo
# oats [1] = assay: Oat tillers with flag leaves emerged at day 28 post-treatment (Example 2)
# Description: The oats from example 1 were also monitored for their number of tillers with flag leaves emerged at day 28 post-treatment. This parameter relates to potential for grain yield. Table 2 contains the resultant tillers with flag leaves at 28 days for the same series of isomer mixtures.
# [2] = system: Commercial field grown wheat; assay: Grain yield of field grown wheat sprayed at flag leaf stage (Example 5); settings: wheat sprayed one time at flag leaf stage, harvested at maturity
# Description: Commercial field grown wheat was sprayed one time with the pyroglutamate composition (isomer ratio 85:15 of L:D) at the flag leaf stage using the same treatment solution as described in our other plant treatments. Grain was harvested at maturity; the treated plots yielded 0.65 T/hectare more (7% increase) grain (seed) than the untreated plots.
# [3] = system: Commercial field grown table grapes; assay: Yield of field grown table grapes sprayed twice (Example 6); settings: 25 gm per acre
# Description: Commercial field grown table grapes were at sprayed twice the first time at 6-12″ of new vine growth and the second spraying 2 months later. The pyroglutamate composition (isomer ratio 85:15 of L:D) was applied at a rate of 25 gm per acre.
# oats [4] = assay: Mitigation by pyroglutamate of 2,4-D-induced stress in oats (Example 7); settings: oat seedlings in greenhouse, 2,4-D at ¼ field strength, pyroglutamate 13.5 g/L, with surfactant/wetting agent
# Description: A test was conducted to measure mitigation by pyroglutamate of 2,4-D-induced stress in a monocotyledonous crop plant, oats.
# Growing oat plants were treated with a mixture of pyroglutamate (isomer ratio 85:15 of L:D) and 2,4-D and their growth monitored. Oat seedlings, growing vigorously in a greenhouse, were treated with a mixture of 2,4-D and pyroglutamate (13.5 g/L). The 2,4-D was included in the mixture at ¼ of the recommended field strength; a surfactant/wetting agent (Gly Surf P) was also used. The treatment solution was applied with a backpack R&D sprayer using 2 passes over the plants to assure that all plants received treatment solution. It was estimated that this simulated a ½ strength field dose. These plants were compared with plants treated with the herbicide and surfactant/wetting agent as well as with controls treated only with the surfactant/wetting agent (controls).
# white clover = assay: Herbicidal killing rate on white clover (Example 8); settings: recommended field strength application, 25 plants each treatment
# Description: (§1) Two dicotyledenous plants, white clover and morning glory were treated with the manufacturer's recommended field strength application and the killing rate was measured. Growing morning glory and clover plants (25 each treatment) treated with either 2,4-D alone or a mixture of 2,4-D and pyroglutamate were killed with the same efficacy, 100%.
# morning glory = assay: Herbicidal killing rate on morning glory (Example 8); settings: recommended field strength application, 25 plants each treatment
# Description: as §1
structure (smiles),measurement,setting,value
"O=C(O)[C@@H]1CCC(O)=N1 [Series 9, pyroglutamate]",Tillers with flag leaves,oats [1]; listed as 9,23
"O=C(O)[C@@H]1CCC(O)=N1 [Series 11, pyroglutamate]",Tillers with flag leaves,oats [1]; listed as 11,26
"O=C(O)[C@@H]1CCC(O)=N1 [Series 1, pyroglutamate]",Tillers with flag leaves,oats [1]; listed as 1,20
"O=C(O)[C@@H]1CCC(O)=N1 [Series 8, pyroglutamate]",Tillers with flag leaves,oats [1]; listed as 8,31
"O=C(O)[C@@H]1CCC(O)=N1 [Series 6, pyroglutamate]",Tillers with flag leaves,oats [1]; listed as 6,37
"O=C(O)[C@@H]1CCC(O)=N1 [Series 4, pyroglutamate]",Tillers with flag leaves,oats [1]; listed as 4,34
"O=C(O)[C@@H]1CCC(O)=N1 [Series 10, pyroglutamate]",Tillers with flag leaves,oats [1]; listed as 10,22
"O=C(O)[C@@H]1CCC(O)=N1 [Series 7, pyroglutamate]",Tillers with flag leaves,oats [1]; listed as 7,29
"O=C(O)[C@@H]1CCC(O)=N1 [Series 2, pyroglutamate, reference compound]",Tillers with flag leaves,oats [1]; listed as 2,24
"O=C(O)[C@@H]1CCC(O)=N1 [pyroglutamate composition (isomer ratio 85:15 of L:D), pyroglutamate]",grain (seed) yield more than untreated plots,[2],0.65 T/hectare
same,increase in grain yield versus untreated plots,[2],7%
same,greater yield of harvestable grapes than untreated plots,[3],13.5%
same,yield of harvestable grapes,[3],1045 standard boxes
"O=C(O)COc1ccc(Cl)cc1Cl [2,4-D, 2,4-dichlorophenoxy acetic acid]",average plant fresh weight,oats [4],2.29 g
same,killing efficacy,white clover,100%
same,killing efficacy,morning glory,100%
"O=C(O)[C@@H]1CCC(O)=N1 [Series 12, pyroglutamate]",Tillers with flag leaves,oats [1]; listed as 12,24
"O=C(O)[C@@H]1CCC(O)=N1 [Series 3, pyroglutamate]",Tillers with flag leaves,oats [1]; listed as 3,17
"O=C(O)[C@@H]1CCC(O)=N1 [Series 5, pyroglutamate]",Tillers with flag leaves,oats [1]; listed as 5,33
